# Reference: patent US8546086B2, “Use of neuregulin-β as an indicator and/or target” (Mind-NRG SA, priority 2000, dated 2013)
# Key:
# Format in all cases: cell-based, rat
# hippocampal cells [1] = assay: Fura-2 fluorescence imaging of intracellular calcium after glutamate stimulation in flow cell; details: hippocampal neurons
# Excerpt: Hippocampal cells were stimulated with stimulation buffer (in mM): NaCl (125), KCL (5), CaCl2 (2-6), MgCl2 (0.8) glucose (5-10), HEPES (20), L-glutamate (0.01-0.1), glycine (0.01), bicucullin (0.01), pH 7.2; (A=control, B=glutamate, C=glutamate+MK-801; MK-801 is a specific glutamate receptor antagonist). In this connection, the measured or control quantity indicative of performance was a fluorescence signal measured using Fura-2, which signal is proportional to the calcium concentration (all the substances can be found in chemical catalogues supplied by Torris or Sigma). […]
# The fluorescence signals in a larger number of cells are detected, in a time-resolved manner, in dependence on the stimulation conditions (temperature, active compound).
# (§1) In the above-described set up, the following parameters were determined simultaneously or in an explicitly correlating manner. […] Accompanying this, are the simultaneous changes in the release of neurotransmitter (GABA), the influx of Mg into the cells, as detected using the stable isotopic tracer ^26Mg. […]
# hippocampal cells [2] = assay: Neurotransmitter (GABA) release in perfusate by fluorescence HPLC; details: hippocampal neurons, 100 μm glutamate for 30 seconds, +22° C.; control 87 pMol
# Experimental: (§2) Suitable cell culture systems, in the case of neuregulin-β hippocampal primary cultures obtained from prenatal or neonatal rats (described in, for example, “Rat hippocampal neurons in low-density culture”, K. Goslin, H. Asmussen, G. Banker; in “Culturing Nerve Cells, 2nd edition 1998, pp. 339 ff; K. Goslin and G. Banker, eds. MIT Press, Cambridge, Mass., USA), are cultured on the above-described slides, introduced into the flow cell and initially characterized microscopically (morphological micrographs, etc. in the phase contrast microscope). […]
# (§3) Almost in parallel to this, the perfusate is subjected to a synchronized fractionation and analysis; in the case of hippocampal neurons, of neurotransmitters, by means of HPLC using fluorescence detection, in the case of other low molecular weight extracellular components, by means of EMI-MS, and in the case of stable isotopic tracers and metal ions, by means of ICP-MS.
# as §1
# hippocampal cells [3] = assay: Intracellular 26Mg stable isotopic tracer by ICP-MS; details: hippocampal neurons, 100 μm glutamate for 30 seconds, +22° C.; control 25 nM/mg of protein
# Experimental: as §2, §3, §1
# Neuregulin-β = assay: 2-D-PAGE / MALDI-TOF-MS / ESI-MS of glutamate-induced changes in hippocampal proteins; details: for Quantity of Neu-β (32 kDa spot) in 2-D-PAGE: FIG. 4: B=glutamate, C=glutamate+MK-801 (10 μM MK-801)
# Excerpt: Hippocampal cells were stimulated with stimulation buffer (in mM): NaCl (125), KCL (5), CaCl2 (2-6), MgCl2 (0.8) glucose (5-10), HEPES (20), L-glutamate (0.01-0.1), glycine (0.01), bicucullin (0.01), pH 7.2; (A=control, B=glutamate, C=glutamate+MK-801; MK-801 is a specific glutamate receptor antagonist). In this connection, the measured or control quantity indicative of performance was a fluorescence signal measured using Fura-2, which signal is proportional to the calcium concentration (all the substances can be found in chemical catalogues supplied by Torris or Sigma).
# Furthermore, proteins which change under the chosen experimental conditions, or otherwise behave in a conspicuous manner, are characterized and identified using the techniques of proteome research, namely by means of two-dimensional gel electrophoresis, MALDI-TOF-MS and ESI-MS.
# Neuregulin-β was identified by means of two-dimensional PAGE using isoelectric focusing and employing immobilized, nonlinear pH gradients of from 3 to 10 and linear gradients of from 4 to 7 as the first dimension and SDS-PAGE (12% acrylamide) as the second dimension.
# The protein was excised from the gels, subjected to a trypsin cleavage within the gel and subsequently [lacuna] mass-spectroscopically by means of MALDI-TOF mass fingerprint and ESI peptide sequencing (Corthals et al., Identification of Proteins by Mass-Spectrometry, in: Proteome Research, Two-Dimensional Gel-Electrophoresis and Identification Methods, Thierry Rabilloud, Ed., Springer, Berlin (2000), 197-232).
# The identity of the protein was confirmed by analyzing selected peptides by means of MS/MS analysis using ion traps, electrospray, mass spectroscopy of the peptide mixture, which was not fractionated and which had previously been analyzed by MALDI-TOF. The MS/MS analysis of m/z 798.4 was sufficient in order, inter alia, to identify the 88-94 peptide of neuregulin-β. The MS/MS analysis of m/z=842.7 confirmed the sequence of the peptide around position 81-87. […]
structure (smiles),measurement,setting,value
"N[C@@H](CCC(=O)O)C(=O)O [glutamate, L-glutamate]",Calcium (intracellular) concentration (prestimulated),"hippocampal cells [1]; 100 μm glutamate for 30 seconds, +22° C., control 350 nM",850 nM
same,Calcium inflow (Fura-2),hippocampal cells [1]; qualitative,induces an inflow of calcium ions
same,GABA measured quantity (prestimulated),hippocampal cells [2],74 pmol
same,26Mg (intracellular) concentration (prestimulated),hippocampal cells [3],45 nM/mg of nM/mg of protein
same,Quantity of Neu-β (32 kDa spot) in 2-D-PAGE,Neuregulin-β,substantially larger quantity
same,Neuregulin-β expression (prestimulated),"Neuregulin-β; hippocampal neurons, glutamate stimulated, control not expressed",Strongly
C[C@]12N[C@H](Cc3ccccc31)c1ccccc12 [MK-801],Quantity of Neu-β (32 kDa spot) in 2-D-PAGE,Neuregulin-β,"only weakly present, or cannot be found at all"
